Experiment [1] concerns control cells that do not express the mutant JAK3 protein. The settings on record: control cells not expressing mutant JAK3. An excerpt:
(§1) CP-690,550, which specifically binds to and blocks the ATP-binding site of JAK3 kinase, thereby preventing phosphorylation and activation of this enzyme, is commercially available and some of its properties have been described. See, e.g. Borne et al., Tranplantation 80 (12): 1756-1764 (2005); Paniagua et al., Tranplantation 80 (9): 1283-1292 (2005).

Experiment [2] deals with human AML cell line (CMK). The following applies: CMK cells expressing mutant (A572V) JAK3.
Description: as §1

Experiment [3] relates to CMK cells. Put plainly: Apoptosis by annexin V staining with JAK I. It is filed as cell-based, human. The settings on record: increasing concentrations. How it is done: (§2) JAK I (Calbiochem, San Diego, Calif.) is a potent inhibitor of the JAK family of kinases, including JAK3. To confirm that JAK3 is driving the proliferation of CMK cells, the effect of JAK I on the growth and/or viability of CMK cells was examined. CMK and K562 cells (as a control) were treated for seventy hours with increasing doses of JAK I inhibitor up to 2 micrograms/ml. The number of viable cells was determined with the CellTiter 96 AQueous One solution cell proliferation assay (Promega). Apoptosis was measured with a fluorescent stain measuring annexin V.

The test system of experiment [4] is K562 cells. Put plainly: CellTiter 96 AQueous One cell proliferation assay with JAK I, control cell line. It is filed as cell-based. The settings on record: control cell line K562, seventy hours, up to 2 micrograms/ml. As to the method: as §2
The test system of experiment [5] is STAT5. Put plainly: Western blot of STAT5 phosphorylation after JAK I. It is filed as cell-based, human. The settings on record: CMK cells, range of inhibitor concentrations. As to the method: AML-193, GDM-1, CMK, K562 and Ba/F3 cells were obtained from the German National Resource Centre for Biological Material (DSMZ). GF-D8 cells were generously provided by Dr. Orietta Spinelli, Laboratorio Paolo Belli, Bergamo, Italy. All cell lines were maintained in RPMI 1640 supplemented with 10% FCS, 1 unit/mL penicillin G, and 1 μg/mL streptomycin at 37° C. and 5% CO2. Western blotting was carried out according to standard methods, following the Western Blotting Protocol (Cell Signaling Technology, Inc., 2005-2006 Catalogue).
To further confirm the effect of the JAK I on the CMK cell line, Western blot analysis (as described above) was performed following exposure to a range of inhibitor concentrations, and the activity of the JAK3 downstream target, STAT5 examined (see FIG. 3C).

In experiment [6] the test system is CMK cells. As to the kind of experiment: CellTiter 96 AQueous One cell proliferation assay with JAK I. It is filed as cell-based, human. The settings on record: seventy hours, increasing doses up to 2 micrograms/ml. As to the method: as §2

The text below walks through data of US20090285796A1, “MUTANT JAK3 KINASE IN HUMAN LEUKEMIA” (CELL SIGNALING TECHNOLOGY, INC., priority 2006, published 2009).

As to `C[C@@H]1CCN(C(=O)CC#N)C[C@@H]1N(C)c1ncnc2[nH]ccc12` [CP-690,550], the growth and survival entry was “not in control cells” in experiment [1]; “selectively inhibited the growth and survival” in experiment [2].

Turning to `CC(C)(C)c1nc2c3cc[nH]c(=O)c3c3cc(F)ccc3c2[nH]1` [JAK I], in experiment [3], the “apoptosis as measured by annexin V staining” value is on record as “increase in apoptosis”. Further, the growth and viability result in experiment [4] is on record as “no significant effect”. For the same compound, in experiment [5], the “phosphorylation of STAT5” value was “inhibited phosphorylation”. Further, in experiment [6], the cell proliferation result was “inhibition of cell proliferation” and the viability result is listed as “significant decrease in viability”.
